Source: publication PMC6547681 (Nature Communications, 2019)

System: KMS-12-PE cells expressing BCL-2 WT
Assay: CellTiter-Glo cell viability, KMS-12-PE cells overexpressing BCL-2 WT
Settings: read-out: S55746 LC50, KMS-12-PE overexpressing BCL-2 WT, 24 h, mean ± SD, n = 3
Protocol: KMS-12-PE (sourced from DSMZ in 2013; Cat#ACC606) were cultured with HTRPMI with 10% fetal bovine serum. Early passages (P5-P7) after purchase were cryopreserved and thawed for the experiments. Cells beyond passage 15 were not used. Monthly tests for mycoplasma were consistently negative (MycoAlert mycoplasma detection kit; Lonza, GA, USA).
Cell viability 24 h after treatment was then determined using the CellTiter-Glo assay (Promega, Cat#G9241). […] Experiments were performed on three separate occasions; the data is shown as the means ± SD of those three independent experiments.

**Q.** Which CC50 does the source give for `O=C(c1cc(-c2cc3c(cc2C(=O)N2Cc4ccccc4C[C@H]2CN2CCOCC2)OCO3)n2c1CCCC2)N(c1ccccc1)c1ccc(O)cc1` [S55746] here?
**A.** Its CC50 is 320 ± 150 nM.
